Publication PMC9005681, “Use of AD Informer Set compounds to explore validity of novel targets in Alzheimer's disease pathology” (Alzheimer's & Dementia : Translational Research & Clinical …, 2022)
“And” between values parts separate entries of the source, which are not always exact repeats. Equal values may be shown once.

Key:
Experiment in all cases: PDSP GPCR panel primary binding assays at 10 μM
[1] = biological target: T1, cloned human or rodent CNS receptors, channels, and transporters (PDSP panel) (Homo sapiens, UniProt P08173); conditions: Receptor M4, primary assay, 10 μM; for Mean %: mean of Inhibition 1-4
T1 construct: expressed in transfected cells
T1 sequence (P08173 1-479): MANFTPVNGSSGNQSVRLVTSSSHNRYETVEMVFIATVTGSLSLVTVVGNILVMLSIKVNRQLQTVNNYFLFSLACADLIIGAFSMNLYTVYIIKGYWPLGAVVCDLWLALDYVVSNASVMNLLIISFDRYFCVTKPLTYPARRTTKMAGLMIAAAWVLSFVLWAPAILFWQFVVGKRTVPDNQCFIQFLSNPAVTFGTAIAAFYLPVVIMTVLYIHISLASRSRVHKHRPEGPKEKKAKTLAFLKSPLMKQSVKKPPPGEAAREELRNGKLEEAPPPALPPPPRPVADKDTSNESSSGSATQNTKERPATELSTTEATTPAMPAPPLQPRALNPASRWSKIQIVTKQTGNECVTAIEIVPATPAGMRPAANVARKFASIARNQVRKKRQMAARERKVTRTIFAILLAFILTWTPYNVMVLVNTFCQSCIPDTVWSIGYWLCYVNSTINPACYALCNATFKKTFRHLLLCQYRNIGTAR
Method: (§1) GPCR panel: Screening against the receptors within the PDSP panel offers an assessment of off-target pharmacological activity at cloned human or rodent CNS receptors, channels, and transporters that could confound CNS-related phenotypes. A total of 46–47 primary binding assays were run in quadruplicate on these compounds at 10 μM, with follow-up secondary binding assays in 11-point dose-response in triplicate for select compounds versus select receptors. Secondary binding assays were executed for all receptors where test compound displaced an average of >50% of radio-labeled standard ligand. As an exception, no secondary assays were carried out for H3, PBR, or GABAA. […]

[2] = biological target: T2, cloned human or rodent CNS receptors, channels, and transporters (PDSP panel) (Homo sapiens, UniProt P11229); conditions: primary assay
T2 construct: expressed in transfected cells
T2 sequence (P11229 1-460): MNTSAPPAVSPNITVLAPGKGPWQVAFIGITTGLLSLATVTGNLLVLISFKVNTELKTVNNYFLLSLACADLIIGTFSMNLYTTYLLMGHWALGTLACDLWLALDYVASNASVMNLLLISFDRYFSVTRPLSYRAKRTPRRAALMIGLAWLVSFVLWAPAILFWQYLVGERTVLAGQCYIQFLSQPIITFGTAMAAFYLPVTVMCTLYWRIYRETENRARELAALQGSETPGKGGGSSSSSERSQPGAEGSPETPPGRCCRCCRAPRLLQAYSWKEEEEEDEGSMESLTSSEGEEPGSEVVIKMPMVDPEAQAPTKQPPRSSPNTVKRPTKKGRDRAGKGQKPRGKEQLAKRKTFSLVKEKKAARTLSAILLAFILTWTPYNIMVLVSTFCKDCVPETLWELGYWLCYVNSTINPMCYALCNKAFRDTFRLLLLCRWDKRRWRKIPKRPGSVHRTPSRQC
Method: as §1

[3] = biological target: T3, cloned human or rodent CNS receptors, channels, and transporters (PDSP panel) (Homo sapiens, UniProt P20309); conditions: Receptor M3, primary assay, 10 μM; for Mean %: mean of Inhibition 1-4
T3 construct: expressed in transfected cells
Method: as §1

[4] = biological target: T4, cloned human or rodent CNS receptors, channels, and transporters (PDSP panel) (Homo sapiens, UniProt P28566); conditions: Receptor 5-HT1E, primary assay, 10 μM; for Mean %: mean of Inhibition 1-4
T4 construct: expressed in transfected cells
Method: as §1

[5] = biological target: T5, cloned human or rodent CNS receptors, channels, and transporters (PDSP panel) (Homo sapiens, UniProt P35372); conditions: Receptor MOR, primary assay, 10 μM; for Mean %: mean of Inhibition 1-4
T5 construct: expressed in transfected cells
Method: as §1

[6] = biological target: T6, cloned human or rodent CNS receptors, channels, and transporters (PDSP panel) (Homo sapiens, UniProt P35462); conditions: primary assay
T6 construct: expressed in transfected cells
Method: as §1

[7] = biological target: T7, cloned human or rodent CNS receptors, channels, and transporters (PDSP panel) (Homo sapiens, UniProt P50406); conditions: Receptor 5-HT6, primary assay, 10 μM; for Mean %: mean of Inhibition 1-4
T7 construct: expressed in transfected cells
Method: as §1

[8] = biological target: T8, cloned human or rodent CNS receptors, channels, and transporters (PDSP panel) (Rattus norvegicus, UniProt P16257); conditions: Receptor PBR, primary assay, 10 μM
T8 construct: expressed in transfected cells
Method: as §1

T4 sequence (P28566 whole entry): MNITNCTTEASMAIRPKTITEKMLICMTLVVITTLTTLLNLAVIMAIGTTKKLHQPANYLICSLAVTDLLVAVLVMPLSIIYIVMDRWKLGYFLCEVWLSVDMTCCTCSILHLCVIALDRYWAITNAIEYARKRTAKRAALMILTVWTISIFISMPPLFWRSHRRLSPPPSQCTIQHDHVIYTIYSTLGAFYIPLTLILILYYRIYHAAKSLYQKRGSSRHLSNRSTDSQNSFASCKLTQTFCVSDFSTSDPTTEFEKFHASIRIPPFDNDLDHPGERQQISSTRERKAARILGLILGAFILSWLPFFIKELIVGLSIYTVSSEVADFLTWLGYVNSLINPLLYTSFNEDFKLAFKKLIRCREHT
T5 sequence (P35372 whole entry): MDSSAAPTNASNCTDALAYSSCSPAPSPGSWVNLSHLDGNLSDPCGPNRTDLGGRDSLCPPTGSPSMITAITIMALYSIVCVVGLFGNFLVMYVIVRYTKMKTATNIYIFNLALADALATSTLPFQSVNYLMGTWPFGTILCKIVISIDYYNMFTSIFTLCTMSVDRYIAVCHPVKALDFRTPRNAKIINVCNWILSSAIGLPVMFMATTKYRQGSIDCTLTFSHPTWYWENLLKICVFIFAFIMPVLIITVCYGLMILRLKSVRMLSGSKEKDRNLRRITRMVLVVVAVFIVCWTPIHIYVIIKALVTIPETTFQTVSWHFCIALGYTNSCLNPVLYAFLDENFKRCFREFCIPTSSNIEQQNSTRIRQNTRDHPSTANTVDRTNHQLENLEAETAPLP
T6 sequence (P35462 whole entry): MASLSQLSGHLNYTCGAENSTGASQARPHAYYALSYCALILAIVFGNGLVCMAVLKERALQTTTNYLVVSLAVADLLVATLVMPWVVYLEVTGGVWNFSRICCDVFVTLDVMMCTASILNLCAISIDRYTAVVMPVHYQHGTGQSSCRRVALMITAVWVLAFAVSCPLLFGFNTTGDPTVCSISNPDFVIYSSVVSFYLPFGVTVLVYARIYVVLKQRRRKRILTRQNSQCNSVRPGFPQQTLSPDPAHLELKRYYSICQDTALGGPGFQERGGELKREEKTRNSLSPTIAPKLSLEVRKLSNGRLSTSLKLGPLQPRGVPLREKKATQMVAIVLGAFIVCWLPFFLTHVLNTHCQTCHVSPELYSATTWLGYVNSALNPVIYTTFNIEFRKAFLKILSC
T3 sequence (P20309 whole entry): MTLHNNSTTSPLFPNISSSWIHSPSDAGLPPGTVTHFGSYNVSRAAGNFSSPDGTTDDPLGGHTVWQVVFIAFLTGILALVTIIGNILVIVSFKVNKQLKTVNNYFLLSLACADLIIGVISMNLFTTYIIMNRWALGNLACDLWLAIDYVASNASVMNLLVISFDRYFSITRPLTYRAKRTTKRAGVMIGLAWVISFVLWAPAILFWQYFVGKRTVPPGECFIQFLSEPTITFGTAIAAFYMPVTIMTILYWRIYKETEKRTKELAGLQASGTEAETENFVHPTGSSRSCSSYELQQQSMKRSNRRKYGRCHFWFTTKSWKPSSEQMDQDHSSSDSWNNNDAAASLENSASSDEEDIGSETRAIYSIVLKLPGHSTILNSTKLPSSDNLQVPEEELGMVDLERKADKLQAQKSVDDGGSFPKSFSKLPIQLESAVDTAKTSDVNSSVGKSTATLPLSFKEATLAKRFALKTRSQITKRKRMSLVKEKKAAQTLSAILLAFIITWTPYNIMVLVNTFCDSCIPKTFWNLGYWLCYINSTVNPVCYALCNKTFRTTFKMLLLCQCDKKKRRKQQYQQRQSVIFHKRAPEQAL
T7 sequence (P50406 whole entry): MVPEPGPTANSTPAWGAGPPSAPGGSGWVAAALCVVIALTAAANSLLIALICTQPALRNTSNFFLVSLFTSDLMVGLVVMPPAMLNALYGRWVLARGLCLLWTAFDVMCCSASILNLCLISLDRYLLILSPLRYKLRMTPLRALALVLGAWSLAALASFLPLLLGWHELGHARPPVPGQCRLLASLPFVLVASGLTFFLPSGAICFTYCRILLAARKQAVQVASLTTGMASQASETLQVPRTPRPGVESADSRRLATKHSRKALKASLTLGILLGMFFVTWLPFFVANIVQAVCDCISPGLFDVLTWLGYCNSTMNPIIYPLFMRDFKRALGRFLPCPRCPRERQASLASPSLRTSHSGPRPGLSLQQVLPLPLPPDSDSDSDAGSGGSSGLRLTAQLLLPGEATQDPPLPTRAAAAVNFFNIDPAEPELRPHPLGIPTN

**Q.** Which “Inhibition 1” value [1] does the source give for `c1cn2cc(-c3ccc4cn[nH]c4c3)nc(Nc3ccc(N4CCOCC4)cc3)c2n1` [UNC10302678A, Entospletinib (GS-9973)] here?
**A.** 35.72%

**Q.** And the “Inhibition 2” value [1]?
**A.** 0.8%

**Q.** What about the “Inhibition 3” value [1] of the same compound?
**A.** 6.09%

**Q.** What about the “Inhibition 4” value [1] of the same compound?
**A.** 23.54%

**Q.** And the Mean % [1]?
**A.** 16.54%

**Q.** What about the “Inhibition 1” value ([2]; Receptor M1, 10 μM) of the same compound?
**A.** 19.66%

**Q.** And the “Inhibition 2” value ([2]; Receptor M1, 10 μM)?
**A.** -3.67%

**Q.** What about the “Inhibition 3” value ([2]; Receptor M1, 10 μM) of the same compound?
**A.** -8.18%

**Q.** What about the “Inhibition 4” value ([2]; Receptor M1, 10 μM) of the same compound?
**A.** 2.73%

**Q.** And the Mean % ([2]; Receptor M1, 10 μM, mean of Inhibition 1-4)?
**A.** 2.64%

**Q.** And the “Inhibition 1” value [3]?
**A.** 13.32%

**Q.** What about the “Inhibition 2” value [3] of the same compound?
**A.** 23.97%

**Q.** What about the “Inhibition 3” value [3] of the same compound?
**A.** 7.51%

**Q.** What about the “Inhibition 4” value [3] of the same compound?
**A.** 7.37%

**Q.** What about the Mean % [3] of the same compound?
**A.** 13.04%

**Q.** What about the “Inhibition 1” value [4] of the same compound?
**A.** -2.53%

**Q.** And the “Inhibition 2” value [4]?
**A.** -10.95%

**Q.** And the “Inhibition 3” value [4]?
**A.** -16.42%

**Q.** What about the “Inhibition 4” value [4] of the same compound?
**A.** -0.46%

**Q.** What about the Mean % [4] of the same compound?
**A.** -7.59%

**Q.** What about the “Inhibition 1” value [5] of the same compound?
**A.** -0.9%

**Q.** And the “Inhibition 2” value [5]?
**A.** 12.23%

**Q.** What about the “Inhibition 3” value [5] of the same compound?
**A.** 5.91%

**Q.** And the “Inhibition 4” value [5]?
**A.** -3.58%

**Q.** What about the Mean % [5] of the same compound?
**A.** 3.42%

**Q.** What about the “Inhibition 1” value ([6]; Receptor D3, 10 μM) of the same compound?
**A.** -22.2%

**Q.** What about the “Inhibition 2” value ([6]; Receptor D3, 10 μM) of the same compound?
**A.** -12.17%

**Q.** What about the “Inhibition 3” value ([6]; Receptor D3, 10 μM) of the same compound?
**A.** 0%

**Q.** What about the “Inhibition 4” value ([6]; Receptor D3, 10 μM) of the same compound?
**A.** -11.01%

**Q.** And the Mean % ([6]; Receptor D3, 10 μM, mean of Inhibition 1-4)?
**A.** -11.35%

**Q.** What about the “Inhibition 1” value [7] of the same compound?
**A.** -41.25%

**Q.** And the “Inhibition 2” value [7]?
**A.** -29.65%

**Q.** And the “Inhibition 3” value [7]?
**A.** -11.39%

**Q.** What about the “Inhibition 4” value [7] of the same compound?
**A.** -15.68%

**Q.** What about the Mean % [7] of the same compound?
**A.** -24.49%

**Q.** And the “Inhibition 1” value [8]?
**A.** 4.64% and -2.11%

**Q.** What about the “Inhibition 4” value [8] of the same compound?
**A.** 21.43% and 15.83%

**Q.** And the Mean % ([8]; mean of Inhibition 1-4)?
**A.** 13.23% and 8.44%

**Q.** `O=c1oc2ccccc2cc1-c1cn2cc(Cc3ccc(F)cc3)sc2n1` [UNC10302680A, iMDK] was tested. Which “Inhibition 1” value [1] did it give?
**A.** 4.02%

**Q.** What about the “Inhibition 2” value [1] of the same compound?
**A.** 16.88%

**Q.** What about the “Inhibition 3” value [1] of the same compound?
**A.** 25.61%

**Q.** And the “Inhibition 4” value [1]?
**A.** 10.91%

**Q.** And the Mean % [1]?
**A.** 14.36%

**Q.** And the Mean % ([2]; M1, mean inhibition)?
**A.** 7.01%

**Q.** What about the “Inhibition 1” value ([2]; M1, replicate 1) of the same compound?
**A.** 16.84%

**Q.** What about the “Inhibition 2” value ([2]; M1, replicate 2) of the same compound?
**A.** 2.54%

**Q.** What about the “Inhibition 3” value ([2]; M1, replicate 3) of the same compound?
**A.** 0.66%

**Q.** And the “Inhibition 4” value ([2]; M1, replicate 4)?
**A.** 8%

**Q.** What about the “Inhibition 1” value [3] of the same compound?
**A.** 9.1%

**Q.** And the “Inhibition 2” value [3]?
**A.** 60.54%

**Q.** And the “Inhibition 3” value [3]?
**A.** 10.14%

**Q.** And the “Inhibition 4” value [3]?
**A.** 13.11%

**Q.** What about the Mean % [3] of the same compound?
**A.** 23.22%

**Q.** What about the “Inhibition 1” value [4] of the same compound?
**A.** 3.08%

**Q.** What about the “Inhibition 2” value [4] of the same compound?
**A.** -14.65%

**Q.** What about the “Inhibition 3” value [4] of the same compound?
**A.** -14.65%

**Q.** What about the “Inhibition 4” value [4] of the same compound?
**A.** -17.01%

**Q.** What about the Mean % [4] of the same compound?
**A.** -10.81%

**Q.** And the “Inhibition 1” value [5]?
**A.** 9.07%

**Q.** And the “Inhibition 2” value [5]?
**A.** 9.93%

**Q.** And the “Inhibition 3” value [5]?
**A.** 2.65%

**Q.** What about the “Inhibition 4” value [5] of the same compound?
**A.** 1.88%

**Q.** What about the Mean % [5] of the same compound?
**A.** 5.88%

**Q.** And the Mean % ([6]; D3, mean inhibition)?
**A.** -15.93%

**Q.** And the “Inhibition 1” value ([6]; D3, replicate 1)?
**A.** -10.82%

**Q.** And the “Inhibition 2” value ([6]; D3, replicate 2)?
**A.** -16.8%

**Q.** And the “Inhibition 3” value ([6]; D3, replicate 3)?
**A.** -16.41%

**Q.** What about the “Inhibition 4” value ([6]; D3, replicate 4) of the same compound?
**A.** -19.69%

**Q.** And the “Inhibition 1” value [7]?
**A.** -5.99%

**Q.** And the “Inhibition 2” value [7]?
**A.** -28.7%

**Q.** And the “Inhibition 3” value [7]?
**A.** -13.62%

**Q.** What about the “Inhibition 4” value [7] of the same compound?
**A.** -18.86%

**Q.** What about the Mean % [7] of the same compound?
**A.** -16.79%
